Assay results reported in ChEMBL document CHEMBL1151757, “Synthesis, radiosynthesis, and biological evaluation of fluorine-18-labeled 2beta-carbo(fluoroalkoxy)-3beta-(3'-((Z)-2-haloethenyl)phenyl)nortropanes: candidate radioligands for in vivo imaging of the serotonin transporter with positron emission tomography” (J Med Chem, 2008).

How the values were obtained:
Caudate [1] = assay: Drug uptake in anesthetized cynomolgus monkey brain caudate after 27.5 mins postinjection; assay type: ADME, organism-based, Macaca fascicularis, Caudate nucleus; details: in vivo
[2] = Ratio of drug uptake in pons to cerebellum in anesthetized cynomolgus monkey after 215 mins postinjection; assay type: ADME, organism-based, Macaca fascicularis; details: in vivo
[3] = Ratio of drug uptake in thalamus to cerebellum in anesthetized cynomolgus monkey after 195 mins postinjection; assay type: ADME, organism-based, Macaca fascicularis; details: in vivo, 3.25 h
Pons [4] = assay: Drug uptake in anesthetized cynomolgus monkey brain pons after 2.5 mins postinjection; assay type: ADME, organism-based, Macaca fascicularis; details: in vivo
[5] = Drug uptake in anesthetized cynomolgus monkey brain cerebellum after 6.5 mins postinjection; assay type: ADME, organism-based, Macaca fascicularis; details: in vivo
Pons [6] = assay: Drug uptake in anesthetized cynomolgus monkey brain pons after 22.5 mins postinjection; assay type: ADME, organism-based, Macaca fascicularis; details: in vivo, 0.375 h
Pons [7] = assay: Drug uptake in anesthetized cynomolgus monkey brain pons after 165 mins postinjection; assay type: ADME, organism-based, Macaca fascicularis; details: in vivo, 2.75 h
Medulla [8] = assay: Drug uptake in anesthetized cynomolgus monkey brain medulla after 105 mins postinjection; assay type: ADME, organism-based, Macaca fascicularis; details: in vivo, 1.75 h
Caudate [9] = assay: Drug uptake in anesthetized cynomolgus monkey brain caudate after 205 mins postinjection; assay type: ADME, organism-based, Macaca fascicularis, Caudate nucleus; details: in vivo
Thalamus [10] = assay: Drug uptake in anesthetized cynomolgus monkey brain thalamus after 195 mins postinjection; assay type: ADME, organism-based, Macaca fascicularis; details: in vivo, 3.25 h
Medulla [11] = assay: Drug uptake in anesthetized cynomolgus monkey brain medulla after 3.5 mins postinjection; assay type: ADME, organism-based, Macaca fascicularis; details: in vivo
Putamen [12] = assay: Drug uptake in anesthetized cynomolgus monkey brain putamen after 3.5 mins postinjection; assay type: ADME, organism-based, Macaca fascicularis; details: in vivo
[13] = Drug uptake in anesthetized cynomolgus monkey brain occipital lobe after 35 mins postinjection; assay type: ADME, organism-based, Macaca fascicularis; details: in vivo
Caudate [14] = assay: Drug uptake in anesthetized cynomolgus monkey brain caudate after 235 mins postinjection; assay type: ADME, organism-based, Macaca fascicularis, Caudate nucleus; details: in vivo
[15] = Drug uptake in anesthetized cynomolgus monkey brain occipital lobe after 65 mins postinjection; assay type: ADME, organism-based, Macaca fascicularis; details: in vivo
Putamen [16] = assay: Drug uptake in anesthetized cynomolgus monkey brain putamen after 45 mins postinjection; assay type: ADME, organism-based, Macaca fascicularis; set-up: unit not given here; details: in vivo, 0.75 h
Medulla [17] = assay: Drug uptake in anesthetized cynomolgus monkey brain medulla after 55 mins postinjection; assay type: ADME, organism-based, Macaca fascicularis; details: in vivo
Thalamus [18] = assay: Drug uptake in anesthetized cynomolgus monkey brain thalamus after 65 mins postinjection; assay type: ADME, organism-based, Macaca fascicularis; set-up: unit not given here; details: in vivo
Putamen [19] = assay: Drug uptake in anesthetized cynomolgus monkey brain putamen after 135 mins postinjection; assay type: ADME, organism-based, Macaca fascicularis; details: in vivo, 2.25 h
Putamen [20] = assay: Drug uptake in anesthetized cynomolgus monkey brain putamen after 35 mins postinjection; assay type: ADME, organism-based, Macaca fascicularis; set-up: unit not given here; details: in vivo
[21] = Drug uptake in anesthetized cynomolgus monkey brain frontal lobe after 235 mins postinjection; assay type: ADME, organism-based, Macaca fascicularis; details: in vivo
Thalamus [22] = assay: Drug uptake in anesthetized cynomolgus monkey brain thalamus after 27.5 mins postinjection; assay type: ADME, organism-based, Macaca fascicularis; set-up: unit not given here; details: in vivo
Pons [23] = assay: Drug uptake in anesthetized cynomolgus monkey brain pons after 95 mins postinjection; assay type: ADME, organism-based, Macaca fascicularis; details: in vivo
Pons [24] = assay: Drug uptake in anesthetized cynomolgus monkey brain pons after 1.5 mins postinjection; assay type: ADME, organism-based, Macaca fascicularis; details: in vivo, 0.025 h
Medulla [25] = assay: Drug uptake in anesthetized cynomolgus monkey brain medulla after 65 mins postinjection; assay type: ADME, organism-based, Macaca fascicularis; details: in vivo
Pons [26] = assay: Drug uptake in anesthetized cynomolgus monkey brain pons after 6.5 mins postinjection; assay type: ADME, organism-based, Macaca fascicularis; details: in vivo
Thalamus [27] = assay: Drug uptake in anesthetized cynomolgus monkey brain thalamus after 3.5 mins postinjection; assay type: ADME, organism-based, Macaca fascicularis; set-up: unit not given here; details: in vivo
Thalamus [28] = assay: Drug uptake in anesthetized cynomolgus monkey brain thalamus after 135 mins postinjection; assay type: ADME, organism-based, Macaca fascicularis; set-up: unit not given here; details: in vivo, 2.25 h
Medulla [29] = assay: Drug uptake in anesthetized cynomolgus monkey brain medulla after 75 mins postinjection; assay type: ADME, organism-based, Macaca fascicularis; details: in vivo, 1.25 h
Thalamus [30] = assay: Drug uptake in anesthetized cynomolgus monkey brain thalamus after 45 mins postinjection; assay type: ADME, organism-based, Macaca fascicularis; set-up: unit not given here; details: in vivo, 0.75 h
Putamen [31] = assay: Drug uptake in anesthetized cynomolgus monkey brain putamen after 22.5 mins postinjection; assay type: ADME, organism-based, Macaca fascicularis; set-up: unit not given here; details: in vivo, 0.375 h
Pons [32] = assay: Drug uptake in anesthetized cynomolgus monkey brain pons after 225 mins postinjection; assay type: ADME, organism-based, Macaca fascicularis; details: in vivo, 3.75 h
Putamen [33] = assay: Drug uptake in anesthetized cynomolgus monkey brain putamen after 9.5 mins postinjection; assay type: ADME, organism-based, Macaca fascicularis; set-up: unit not given here; details: in vivo
[34] = Drug uptake in anesthetized cynomolgus monkey brain cerebellum after 1.5 mins postinjection; assay type: ADME, organism-based, Macaca fascicularis; details: in vivo, 0.025 h
Medulla [35] = assay: Drug uptake in anesthetized cynomolgus monkey brain medulla after 195 mins postinjection; assay type: ADME, organism-based, Macaca fascicularis; details: in vivo, 3.25 h
Pons [36] = assay: Drug uptake in anesthetized cynomolgus monkey brain pons after 115 mins postinjection; assay type: ADME, organism-based, Macaca fascicularis; details: in vivo
[37] = Ratio of drug uptake in caudate to cerebellum in anesthetized cynomolgus monkey after 9.5 mins postinjection; assay type: ADME, organism-based, Macaca fascicularis; details: in vivo
[38] = Ratio of drug uptake in pons to cerebellum in anesthetized cynomolgus monkey after 18.5 mins postinjection; assay type: ADME, organism-based, Macaca fascicularis; details: in vivo
Medulla [39] = assay: Drug uptake in anesthetized cynomolgus monkey brain medulla after 185 mins postinjection; assay type: ADME, organism-based, Macaca fascicularis; details: in vivo
Thalamus [40] = assay: Drug uptake in anesthetized cynomolgus monkey brain thalamus after 225 mins postinjection; assay type: ADME, organism-based, Macaca fascicularis; set-up: unit not given here; details: in vivo, 3.75 h
[41] = Ratio of drug uptake in midbrain to cerebellum in anesthetized cynomolgus monkey after 125 mins postinjection; assay type: ADME, organism-based, Macaca fascicularis; details: in vivo
Pons [42] = assay: Drug uptake in anesthetized cynomolgus monkey brain pons after 235 mins postinjection; assay type: ADME, organism-based, Macaca fascicularis; details: in vivo
Pons [43] = assay: Drug uptake in anesthetized cynomolgus monkey brain pons after 4.5 mins postinjection; assay type: ADME, organism-based, Macaca fascicularis; details: in vivo, 0.075 h
Caudate [44] = assay: Drug uptake in anesthetized cynomolgus monkey brain caudate after 165 mins postinjection; assay type: ADME, organism-based, Macaca fascicularis, Caudate nucleus; details: in vivo, 2.75 h
Pons [45] = assay: Drug uptake in anesthetized cynomolgus monkey brain pons after 9.5 mins postinjection; assay type: ADME, organism-based, Macaca fascicularis; details: in vivo
Thalamus [46] = assay: Drug uptake in anesthetized cynomolgus monkey brain thalamus after 155 mins postinjection; assay type: ADME, organism-based, Macaca fascicularis; set-up: unit not given here; details: in vivo
[47] = Ratio of drug uptake in putamen to cerebellum in anesthetized cynomolgus monkey after 35 mins postinjection; assay type: ADME, organism-based, Macaca fascicularis; details: in vivo
Midbrain = assay: Drug uptake in anesthetized cynomolgus monkey brain midbrain after 1.5 mins postinjection; assay type: ADME, organism-based, Macaca fascicularis; set-up: unit not given here; details: in vivo, 0.025 h
Thalamus [48] = assay: Drug uptake in anesthetized cynomolgus monkey brain thalamus after 9.5 mins postinjection; assay type: ADME, organism-based, Macaca fascicularis; set-up: unit not given here; details: in vivo
Pons [49] = assay: Drug uptake in anesthetized cynomolgus monkey brain pons after 105 mins postinjection; assay type: ADME, organism-based, Macaca fascicularis; details: in vivo, 1.75 h

O=C(OCC[18F])C1C2CCC(CC1c1ccc(/C=C\I)cc1)N2 (stereo not given)
Drug uptake (Caudate [1]): 2.17
Ratio [2]: 2.9
Ratio [3]: 2.8
Drug uptake (Pons [4]): 0.36
Drug uptake [5]: 1.79
Drug uptake (Pons [6]): 2.4
Drug uptake (Pons [7]): 3.54
Drug uptake (Medulla [8]): 3.82
Drug uptake (Caudate [9]): 2.77
Drug uptake (Thalamus [10]): 3.67
Drug uptake (Medulla [11]): 0.94
Drug uptake (Putamen [12]): 0.82
Drug uptake [13]: 2.13
Drug uptake (Caudate [14]): 2.61
Drug uptake [15]: 2.38
Drug uptake (Putamen [16]): 3.8
Drug uptake (Medulla [17]): 3.78
Drug uptake (Thalamus [18]): 3.92
Drug uptake (Putamen [19]): 4.33
Drug uptake (Putamen [20]): 3.57
Drug uptake [21]: 1.51
Drug uptake (Thalamus [22]): 3.06
Drug uptake (Pons [23]): 3.5
Drug uptake (Pons [24]): 0.06
Drug uptake (Medulla [25]): 3.75
Drug uptake (Pons [26]): 1.36
Drug uptake (Thalamus [27]): 0.76
Drug uptake (Thalamus [28]): 3.99
Drug uptake (Medulla [29]): 3.82
Drug uptake (Thalamus [30]): 3.63
Drug uptake (Putamen [31]): 3.13
Drug uptake (Pons [32]): 3.34
Drug uptake (Putamen [33]): 2.38
Drug uptake [34]: 0.1
Drug uptake (Medulla [35]): 3.41
Drug uptake (Pons [36]): 3.65
Ratio [37]: 0.7
Ratio [38]: 0.9
Drug uptake (Medulla [39]): 3.41
Drug uptake (Thalamus [40]): 3.35
Ratio [41]: 2.7
Drug uptake (Pons [42]): 3.06
Drug uptake (Pons [43]): 0.8
Drug uptake (Caudate [44]): 2.99
Drug uptake (Pons [45]): 1.62
Drug uptake (Thalamus [46]): 3.97
Ratio [47]: 1.4
Drug uptake (Midbrain): 0.1
Drug uptake (Thalamus [48]): 2.06
Drug uptake (Pons [49]): 3.4
